These results are taken from patent US11873291B2, “Quinoline cGAS antagonist compounds” (ImmuneSensor Therapeutics, Inc., priority 2020, dated 2024).

In the experiment the target is T1, recombinant human cGAS (aa147-522) (Homo sapiens, UniProt Q8N884).
T1 construct: recombinant human cGAS (aa147-522); His6-SUMO (cleaved yes); made in house; host or cells: E. coli BL21/pLys
Briefly: In vitro inhibition assay of cGAS activity (ATP consumption, KinaseGlo Max). Format: biochemical. Particulars: Table 3, read-out: cGAS Inhibition Results IC50. An outline of the steps:
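IC50 came from plotting % ATP consumption against log compound concentration, with leftover ATP detected by KinaseGlo Max chemiluminescence. Reactions ran 20 min at 37 °C with 1.5 μg/mL human cGAS (aa147-522), 6.6 μM ATP, 0.1 mM GTP and 0.01 mg/mL DNA at pH 7.5.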
(Kinase-Glo reads ATP consumption through a luciferase reaction.)

Where only a bound is given, the exact number is not on record here.

T1 sequence (Q8N884 147-522): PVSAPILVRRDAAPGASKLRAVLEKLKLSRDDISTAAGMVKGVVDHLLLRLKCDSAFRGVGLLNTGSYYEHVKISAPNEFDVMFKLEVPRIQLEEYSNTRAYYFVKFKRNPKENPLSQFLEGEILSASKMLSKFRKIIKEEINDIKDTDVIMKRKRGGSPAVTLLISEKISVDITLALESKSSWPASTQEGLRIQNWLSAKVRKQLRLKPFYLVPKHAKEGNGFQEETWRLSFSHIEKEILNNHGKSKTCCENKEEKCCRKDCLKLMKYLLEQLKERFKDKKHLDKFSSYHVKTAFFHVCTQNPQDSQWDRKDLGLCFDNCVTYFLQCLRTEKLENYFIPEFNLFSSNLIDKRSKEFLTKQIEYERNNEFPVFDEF

A word on the IC50: it is the concentration at which inhibition is half-maximal. As to `CN(CCNC(=O)c1cccc(C(=O)O)c1)c1cc(-n2ccnc2)c2ccc(Cl)c(Cl)c2n1` [I-620], the IC50 lay in the range of 2000 to 30000 nM.

`CN(CCN1C(=O)c2ccccc2S1(=O)=O)c1cc(-n2ccnc2)c2ccc(Cl)c(Cl)c2n1` [I-621]: the 50% inhibitory concentration (IC50) lay within 2000 to 30000 nM.

Consider `CN(CCNC(=O)C1CCCC1C(=O)O)c1cc(-n2ccnc2)c2ccc(Cl)c(Cl)c2n1` (stereo not shown) [I-622], for which the IC50 was < 2000 nM.

As for `CN(CCNS(=O)(=O)c1cccc(C(=O)O)c1)c1cc(-n2ccnc2)c2ccc(Cl)c(Cl)c2n1` [I-623], the IC50 lay within 2000 to 30000 nM.

For `CN(CCS(=O)(=O)NCCO)c1cc(-n2ccnc2)c2ccc(Cl)c(Cl)c2n1` [I-624, 2-((7,8-dichloro-4-(1H-imidazol-1-yl)quinolin-2-yl)(methyl)amino)-N-(2-hydroxyethyl)ethane-1-sulfonamide], the IC50 was < 2000 nM.

As for `CN(CCS(=O)(=O)NC1CCC(C(=O)O)C1)c1cc(-n2ccnc2)c2ccc(Cl)c(Cl)c2n1` (stereo not shown) [I-625], the IC50 is < 2000 nM.

With `CN(CCS(=O)(=O)N1CCCC1C(=O)O)c1cc(-n2ccnc2)c2ccc(Cl)c(Cl)c2n1` (stereo not shown) [I-626], the IC50 was < 2000 nM.

Consider `CN(CCS(=O)(=O)N1CCC(C(=O)O)C1)c1cc(-n2ccnc2)c2ccc(Cl)c(Cl)c2n1` (stereo not shown) [I-627], for which the IC50 is < 2000 nM.

Consider `CN(CCS(=O)(=O)NC1CCCC(C(=O)O)C1)c1cc(-n2ccnc2)c2ccc(Cl)c(Cl)c2n1` (stereo not shown) [I-628], for which the IC50 is < 2000 nM.

Take `CN(CCS(=O)(=O)N1CCCCC1C(=O)O)c1cc(-n2ccnc2)c2ccc(Cl)c(Cl)c2n1` (stereo not shown) [I-629]: the half-inhibitory concentration (IC50) is < 2000 nM.

On to `CN(CCS(=O)(=O)NCCC(=O)O)c1cc(-n2ccnc2)c2ccc(Cl)c(Cl)c2n1` [I-630], for which the concentration for half-maximal inhibition (IC50) is < 2000 nM.

In the case of `CN(CCS(=O)(=O)N1CCCC(C(=O)O)C1)c1cc(-n2ccnc2)c2ccc(Cl)c(Cl)c2n1` (stereo not shown) [I-631], the IC50 was < 2000 nM.

With `CN(CCS(=O)(=O)NCCCO)c1cc(-n2ccnc2)c2ccc(Cl)c(Cl)c2n1` [I-632], the IC50 is < 2000 nM.

As for `CN(CCS(=O)(=O)NCC(=O)O)c1cc(-n2ccnc2)c2ccc(Cl)c(Cl)c2n1` [I-633], the IC50 was < 2000 nM.

`CN(CCN(CCC(=O)O)S(C)(=O)=O)c1cc(-n2ccnc2)c2ccc(Cl)c(Cl)c2n1` [I-634, 3-(N-(2-((7,8-dichloro-4-(1H-imidazol-1-yl)quinolin-2-yl)(methyl)amino)ethyl)methylsulfonamido) propanoic acid]: the IC50 was < 2000 nM.

In the case of `CN(CCN(CC(=O)O)S(C)(=O)=O)c1cc(-n2ccnc2)c2ccc(Cl)c(Cl)c2n1` [I-635, N-(2-((7,8-dichloro-4-(1H-imidazol-1-yl)quinolin-2-yl)(methyl)amino)ethyl)-N-(methylsulfonyl)glycine], the IC50 was < 2000 nM.

Consider `CN(CCN(Cc1cccc(C(=O)O)c1)S(C)(=O)=O)c1cc(-n2ccnc2)c2ccc(Cl)c(Cl)c2n1` [I-636, 3-((N-(2-((7,8-dichloro-4-(1H-imidazol-1-yl)quinolin-2-yl)(methyl)amino)ethyl)methylsulfonamido)methyl)benzoic acid], for which the IC50 was < 2000 nM.

`O=C1NC(=O)[C@H](CS(=O)(=O)NC[C@@H]2CCCN2c2cc(-n3ccnc3)c3ccc(Cl)c(Cl)c3n2)N1` [I-637]: the IC50 was < 2000 nM.

Regarding `O=C(O)c1cccc(S(=O)(=O)NC[C@@H]2CCCN2c2cc(-n3ccnc3)c3ccc(Cl)c(Cl)c3n2)c1` [I-638], the IC50 is 2000 to 30000 nM.

Turning to `O=C(O)CS(=O)(=O)NC[C@@H]1CCCN1c1cc(-n2ccnc2)c2ccc(Cl)c(Cl)c2n1` [I-639], the IC50 is < 2000 nM.

As for `O=C(O)c1ccc(S(=O)(=O)NC[C@@H]2CCCN2c2cc(-n3ccnc3)c3ccc(Cl)c(Cl)c3n2)cc1` [I-640], the IC50 is < 2000 nM.

Turning to `O=C(NC[C@@H]1CCCN1c1cc(-n2ccnc2)c2ccc(Cl)c(Cl)c2n1)c1cc(O)no1` [I-641], the IC50 is < 2000 nM.

Take `CC(=O)O[C@H]1CCN(c2cc(-n3ccnc3)c3ccc(Cl)c(Cl)c3n2)[C@@H]1C(=O)O` [I-643, (2S,3S)-3-acetoxy-1-(7,8-dichloro-4-(1H-imidazol-1-yl)quinolin-2-yl)pyrrolidine-2-carboxylic acid]: the IC50 is < 2000 nM.

Take `CC(C)(C)OC(=O)[C@@H]1CCCN1c1cc(-n2ccnc2)c2ccc(Cl)c(Cl)c2n1` [I-644]: the IC50 lay within 2000 to 30000 nM.

For the compound `COC(=O)[C@@H]1[C@@H](OC)CCN1c1cc(-n2ccnc2)c2ccc(Cl)c(Cl)c2n1` [I-646, methyl (2S,3S)-1-(7,8-dichloro-4-(1H-imidazol-1-yl)quinolin-2-yl)-3-methoxypyrrolidine-2-carboxylate], the IC50 is 2000 to 30000 nM.

With `COC(=O)[C@@H]1[C@H](OC)CCN1c1cc(-n2ccnc2)c2ccc(Cl)c(Cl)c2n1` [I-647], the IC50 lay within 2000 to 30000 nM.

With `COC(=O)[C@@H]1[C@H](OCC(=O)O)CCN1c1cc(-n2ccnc2)c2ccc(Cl)c(Cl)c2n1` [I-648], the IC50 was in the range of 2000 to 30000 nM.

For the compound `O=C(O)[C@@H]1[C@@H](F)CCN1c1cc(-n2ccnc2)c2ccc(Cl)c(Cl)c2n1` [I-651], the IC50 was < 2000 nM.

As for `COC(=O)C1=CCCN1c1cc(-n2ccnc2)c2ccc(Cl)c(Cl)c2n1` [I-652, methyl 1-(7,8-dichloro-4-(1H-imidazol-1-yl)quinolin-2-yl)-4,5-dihydro-1H-pyrrole-2-carboxylate], the IC50 fell in the range of 2000 to 30000 nM.

Take `COC(=O)CNC(=O)O[C@@H]1CCN(c2cc(-n3ccnc3)c3ccc(Cl)c(Cl)c3n2)[C@@H]1C(=O)OC` [I-653, methyl (2S,3R)-1-(7,8-dichloro-4-(1H-imidazol-1-yl)quinolin-2-yl)-3-(((2-methoxy-2-oxoethyl)carbamoyl)oxy)pyrrolidine-2-carboxylate]: the IC50 is < 2000 nM.

On to `O[C@@H]([C@@H]1CCCN1c1cc(-n2ccnc2)c2ccc(Cl)c(Cl)c2n1)C(F)(F)F` [I-654, (S)-1-((S)-1-(7,8-dichloro-4-(1H-imidazol-1-yl)quinolin-2-yl)pyrrolidin-2-yl)-2,2,2-trifluoroethan-1-ol], for which the IC50 was < 2000 nM.

As to `O[C@H]([C@@H]1CCCN1c1cc(-n2ccnc2)c2ccc(Cl)c(Cl)c2n1)C(F)(F)F` [I-655, (R)-1-((S)-1-(7,8-dichloro-4-(1H-imidazol-1-yl)quinolin-2-yl)pyrrolidin-2-yl)-2,2,2-trifluoroethan-1-ol], the IC50 is < 2000 nM.

For `OC([C@@H]1CCCN1c1cc(-n2ccnc2)c2ccc(Cl)c(Cl)c2n1)(C(F)(F)F)C(F)(F)F` [I-656, (S)-2-(1-(7,8-dichloro-4-(1H-imidazol-1-yl)quinolin-2-yl)pyrrolidin-2-yl)-1,1,1,3,3,3-hexafluoropropan-2-ol], the IC50 is > 30000 nM.

On to `O=[PH](O)OC[C@@H]1CCCN1c1cc(-n2ccnc2)c2ccc(Cl)c(Cl)c2n1` [I-658, ((5)-1-(7,8-dichloro-4-(1H-imidazol-1-yl)quinolin-2-yl)pyrrolidin-2-yl)methyl hydrogen phosphonate], for which the IC50 is < 2000 nM.

Regarding `OC[C@@H]1CCN1c1cc(-n2ccnc2)c2ccc(Cl)c(Cl)c2n1` [I-659], the half-inhibitory concentration (IC50) is < 2000 nM.

Turning to `COC(=O)[C@@H]1c2ccccc2CN1c1cc(-n2ccnc2)c2ccc(Cl)c(Cl)c2n1` [I-660], the IC50 fell in the range of 2000 to 30000 nM.

As to `O=C(O)[C@H](O)[C@@H]1CCCN1c1cc(-n2ccnc2)c2ccc(Cl)c(Cl)c2n1` [I-661, (R)-2-((S)-1-(7,8-dichloro-4-(1H-imidazol-1-yl)quinolin-2-yl)pyrrolidin-2-yl)-2-hydroxyacetic acid], the IC50 is < 2000 nM.

In the case of `COC(=O)C(O)[C@@H]1CCCN1c1cc(-n2ccnc2)c2ccc(Cl)c(Cl)c2n1` (stereo partly shown) [I-662], the IC50 lay in the range of 2000 to 30000 nM.

As to `O=C(O)CCCCCOC[C@@H]1CCCN1c1cc(-n2ccnc2)c2ccc(Cl)c(Cl)c2n1` [I-675, (S)-6-((1-(7,8-dichloro-4-(1H-imidazol-1-yl)quinolin-2-yl)pyrrolidin-2-yl)methoxy)hexanoic acid], the IC50 is < 2000 nM.

On to `O=C(O)COC[C@@H]1[C@@H](O)CCN1c1cc(-n2ccnc2)c2ccc(Cl)c(Cl)c2n1` [I-697], for which the IC50 is < 2000 nM.

For `O=C(O)CCO[C@H]([C@@H]1CCCN1c1cc(-n2ccnc2)c2ccc(Cl)c(Cl)c2n1)C(F)(F)F` [I-721], the IC50 is 2000 to 30000 nM.

On to `O=C(O)c1ccnn1C[C@@H]1CCCN1c1cc(-n2ccnc2)c2ccc(Cl)c(Cl)c2n1` [I-727, (S)-1-((1-(7,8-dichloro-4-(1H-imidazol-1-yl)quinolin-2-yl)pyrrolidin-2-yl)methyl)-1H-pyrazole-5-carboxylic acid], for which the IC50 was < 2000 nM.

As to `O=C(O)c1ccnn1CC[C@@H]1CCCN1c1cc(-n2ccnc2)c2ccc(Cl)c(Cl)c2n1` [I-729], the IC50 was < 2000 nM.

Regarding `O=C(O)c1ccn(CC[C@@H]2CCCN2c2cc(-n3ccnc3)c3ccc(Cl)c(Cl)c3n2)n1` [I-731], the IC50 is < 2000 nM.

`O=C(O)c1ccc(OC[C@@H]2CCCN2c2cc(-n3ccnc3)c3ccc(Cl)c(Cl)c3n2)cc1` [I-737]: the IC50 was < 2000 nM.

In the case of `O=C(O)Cc1ccc(OC[C@@H]2CCCN2c2cc(-n3ccnc3)c3ccc(Cl)c(Cl)c3n2)cc1` [I-738], the IC50 is < 2000 nM.

Regarding `O=C(O)COC[C@H]1CCCN(c2cc(-c3cn[nH]c3)c3ccc(Cl)c(Cl)c3n2)C1` [I-746], the half-maximal inhibitory concentration (IC50) is < 2000 nM.

Regarding `CN(CCC(=O)O)C[C@@H]1CCCN1c1cc(-n2ccnc2)c2ccc(Cl)c(Cl)c2n1` [I-754, (S)-3-(((1-(7,8-dichloro-4-(1H-imidazol-1-yl)quinolin-2-yl)pyrrolidin-2-yl)methyl)(methyl)amino)propanoic acid], the IC50 is 2000 to 30000 nM.

Regarding `COC(=O)CCN(CCC(=O)OC)C[C@@H]1CCCN1c1cc(-n2ccnc2)c2ccc(Cl)c(Cl)c2n1` [I-757, dimethyl 3,3′-(((1-(7,8-dichloro-4-(1H-imidazol-1-yl)quinolin-2-yl)pyrrolidin-2-yl)methyl)azanediyl)(S)-dipropionate], the IC50 is 2000 to 30000 nM.
